Laboratory results taken from patent publication US12239654B2, “Compounds and methods for treating neurological and cardiovascular conditions” (Astrocyte Pharmaceuticals, Inc., priority 2016, dated 2025).

Columns and labels:
[1] = Pharmacokinetics of MRS4322 following intraperitoneal administration of MRS2365 to mice; assay type: in vivo; conditions: for Plasma Concentration Mean / Plasma Concentration by Subject / Brain Concentration Mean / Brain Concentration by Subject: analyte MRS4322, mice, MRS2365 0.24 mg/kg ip; for Plasma Concentration by Subject / Brain Concentration by Subject: subjects A-C
Experimental: Animals: Female C576BL/6J mice weighing approximately 0.02 Kg were used for this study, supplied by the University of Texas Health Sciences Center (San Antonio, TX). All studies were conducted under approved University of Texas Health Sciences Center IACUC protocols.
Drug Administration: MRS2365 was solubilized in phosphate-buffered saline and then diluted in phosphate-buffered saline to prepare dosing solution. Final dosing solution concentration of MRS2365 was 100 μM. A 100 μL volume of dosing solution was administered intraperitoneally to each mouse per 20 gram body weight; MRS2365 was administered intraperitoneally at 0.5 μmol/kg or 0.24 mg/kg. Three mice were administered MRS2365 for each sampling timepoint.
Tissue Sampling: Blood and brain samples were obtained at 0, 0.083, 0.25, 0.5, 1, 2 and 8 hours post-dose. At each timepoint, mice (3/timepoint) were euthanized in a […] chamber. Whole blood was obtained by cardiac puncture into Microtainer tubes containing heparin and immediately centrifuged for preparation of plasma; plasma was stored at −80° C. At each timepoint, whole brain samples were obtained by decapitation, rinsed in ice-cold phosphate-buffered saline and weighed. Brain samples were then immediately flash-frozen in liquid nitrogen and stored at −80° C.
The following table outlines the LC and MS/MS conditions employed:
The calibration range for the MRS4322 plasma concentration standard curve was 2.26-241 ng/mL. The calibration range for MRS4322 brain concentrations was 2.35-242 ng/mL.
For bioanalysis of brain concentrations of MRS4322, brain samples were homogenized in ice-cold phosphate-buffered saline in a 4× dilution. Aliquots of the resulting diluted brain homogenate were treated with acetonitrile and analyzed by LC-MS/MS. Because of the 4× homogenate dilution, the calibration range of the MRS4322 brain standard curve was translated to 9.40-968 ng/gm. In several samples, MRS4322 were detectable but fell below the brain LLOQ of 9.40 ng/gm but were above background; in these cases the final reported brain concentration was extrapolated based on MS peak heights.

[2] = Brain binding determination by brain homogenate ultrafiltration, mouse; assay type: in vitro ADME; conditions: 37° C., ultrafiltration; for fraction unbound at 60 min, 1 μM: male, CD-1, mouse, brain homogenate, pH 7.4, mouse brain homogenate
Experimental: (§1) Animals and Tissue Preparation: Plasma from male CD-1 mice was obtained from BioreclamationIVT (Westbury, NY) and stored at −80° C. until use. Male CD-1 mouse brains were obtained from BioreclamationIVT (Westbury, NY).
Brains were weighed and homogenized with 1:9 phosphate-buffered saline, pH 7.4 using an Omni tissue homogenizer. Brains from four mice were homogenized, pooled and mixed to form one sample.
Pooled homogenized brains were pre-warmed for 60 minutes in a humidified, 5% CO2 incubator maintained at 37° C. […] Spiked pooled brain homogenates were placed on a Nutator mixer in a humidified, 5% CO2 incubator at 37° C. for 60 minutes. After 60 minutes, three 800 μL aliquots of each sample were added to Centrifree centrifugal filters. The filters were subjected to centrifugation at 2900 rpm for 10 minutes at 37° C. Aliquots of residual brain homogenate and ultrafiltrate were collected for bioanalysis.
(§2) Plasma and brain concentrations of MRS4322 and MRS5698 in spiked plasma, brain homogenates and associated ultrafiltrates were determined by LC-MS/MS utilizing tolbutamide as an internal standard. […] The following tables outline the LC and MS/MS conditions employed (Tables 7 and 8).
(§3) For each tissue matrix, standard curves were created and LLOQ/ULOQ concentrations determined. The calibration range for the MRS4322 and MRS5698 plasma concentration standard curves was 400-1200 nM. The calibration range for MRS4322 and MRS5698 plasma ultrafiltrate standard curves was 100-1200 nM. The calibration range for MRS4322 brain homogenate and brain homogenate ultrafiltrate standard curves were 400-1200 nM and 100-1200 nM, respectively. The calibration range for MRS5698 brain homogenate and brain homogenate ultrafiltrate standard curves were 400-1200 nM and 1-500 nM, respectively.

[3] = molecular target: T1, mouse A3 adenosine receptor (Mus musculus, UniProt Q61618); assay: Competition binding versus [^3H]NECA at mouse A3 receptors expressed in CHO cells
T1 construct: expressed in transfected cells; whole cells for cAMP
T1 sequence (Q61618 1-319): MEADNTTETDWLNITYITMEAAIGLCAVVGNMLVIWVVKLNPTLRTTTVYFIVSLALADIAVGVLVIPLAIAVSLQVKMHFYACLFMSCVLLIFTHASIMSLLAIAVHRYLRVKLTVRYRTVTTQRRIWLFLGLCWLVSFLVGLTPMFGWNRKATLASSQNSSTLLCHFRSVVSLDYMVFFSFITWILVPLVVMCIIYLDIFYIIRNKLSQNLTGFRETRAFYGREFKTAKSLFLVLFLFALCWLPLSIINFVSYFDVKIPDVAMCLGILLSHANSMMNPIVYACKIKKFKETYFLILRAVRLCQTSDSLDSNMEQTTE

[4] = Plasma binding determination by plasma ultrafiltration, mouse; assay type: in vitro ADME; conditions: for fraction unbound at 60 min, 1 μM: male, CD-1, mouse, plasma
Experimental: as §1
Plasma ultrafiltrate blank samples were prepared by thawing frozen plasma and then pre-warming plasma in a humidified 5% CO2 chamber at 37° C. for 60 minutes. Aliquots of 800 μL were transferred to Centrifree Centrifugal Filters (Ultracel regenerated cellulose (NMWL 30,000 amu) Lot R5JA31736) and centrifuged at 2900 RPM at 37° C. for 10 minutes; plasma water filtrates were collected and used in preparation of standards, blanks and QC standards.
Plasma samples were pre-warmed for 60 minutes in a humidified, 5% CO2 incubator maintained at 37° C. […] Spiked plasma samples were incubated on a rotary mixer in a humidified 5% CO2 chamber at 37° C. for a minimum of 60 minutes. After 60 minutes, three 800 μL aliquots of each sample were added to Centrifree centrifugal filters. The filters were subjected to centrifugation at 2900 rpm for 10 minutes at 37° C. Three 100 μL aliquots of residual plasma were collected along with ultrafiltrate for bioanalysis.
as §2, §3

[5] = read-out: Fraction Unbound Mean
[6] = mouse plasma, 1 μM, 37° C., ultrafiltration, read-out: Fraction Unbound Mean

## CSc1nc(N)c2ncn([C@H]3[C@H](O)[C@H](O)[C@]4(CO)C[C@H]34)c2n1 [MRS4322]
[1]; 0 h
  Plasma Concentration Mean: BLQ
  Plasma Concentration by Subject: BLQ
[1]; 0.083 h
  Brain Concentration Mean: BLQ
  Brain Concentration by Subject: BLQ
[1]; 1 h
  Brain Concentration Mean: BLQ
  Brain Concentration by Subject: BLQ
[1]; 2 h
  Brain Concentration Mean: BLQ
  Brain Concentration by Subject: BLQ
[1]; 8 h
  Brain Concentration Mean: BLQ
  Plasma Concentration Mean: BLQ
  Brain Concentration by Subject: BLQ
  Plasma Concentration by Subject: BLQ
[1]; female, C57BL/6J, mouse, MRS4322 after MRS2365 ip to mice, based on mean Cmax concentrations in plasma and brain, read-out: brain/plasma ratio of total drug
  Kp: ~0.1
[2]; read-out: % Bound Mean (converted)
  fraction unbound at 60 min, 1 μM: 0.13
[2]; [5]
  fraction unbound at 60 min, 1 μM: 0.13
[2]; mouse brain homogenate, 1 μM
  % Bound Mean: 87.0%
  Fraction Unbound Mean: 0.130
[3]; read-out: Ki ± SEM, Mouse A3R, [^3H]NECA, CHO cell membrane preparations, [^3H]NECA (10 nM)
  Ki: 4.94 ± 0.974 µM
[4]; mouse plasma, 1 μM, 37° C., ultrafiltration, read-out: % Bound Mean (converted)
  fraction unbound at 60 min, 1 μM: 0.742
[4]; [6]
  fraction unbound at 60 min, 1 μM: 0.742
[4]; mouse models, from unbound fractions in plasma and brain
  fraction available to interact with the A3 receptor relative to Cl-IB-MECA: at least 1000 fold
[4]; mouse plasma, 1 μM, 37° C., ultrafiltration
  Fraction Unbound Mean: 0.74

## CNC(=O)[C@H]1O[C@@H](n2cnc3c(NCc4cccc(I)c4)nc(Cl)nc32)[C@H](O)[C@@H]1O [Cl-IB-MECA, 2-Chloro-N^6-(3-iodobenzyl)-adenosine-5′-N-methyluronamide, reference compound]
[2]; [5]
  fraction unbound at 60 min, 1 μM: 0.002
[3]; Cl-IB-MECA vs MRS4322
  difference in affinity of Cl-IB-MECA and MRS4322 at mouse A3 receptor: approximately 25,000 fold
[4]; [6]
  fraction unbound at 60 min, 1 μM: 0.002

## CSc1nc(N)c2ncn([C@H]3[C@H](O)[C@H](O)[C@]4(COP(=O)(O)OP(=O)(O)O)C[C@H]34)c2n1 [MRS2365]
[1]; MRS2365 0.5 μmol/kg ip, comparison with equimolar MRS4322
  metabolism following intraperitoneal administration to mice: rapidly and completely metabolized to MRS4322
